Key:
glucagon receptor (GCGR) = biological target: T1, glucagon receptor (GCGR) (Homo sapiens, UniProt P47871); assay: Glucagon cAMP inhibition assay (Cisbio cAMP Dynamic 2 HTRF); assay type: cell-based; settings: GCGR overexpressed CHO-K1 cells or human primary hepatocytes (not specified); glucagon at EC50
T1 construct: expressed in transfected cells; host or cells: CHO-K1
Method in brief: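 GCGR-overexpressing CHO-K1 cells or human primary hepatocytes in HBSS with 0.1% BSA and 800 nM IBMX, pre-incubated 30 min with compound (1% DMSO final), then stimulated 30 min at room temperature with glucagon at its EC50. cAMP measured by HTRF after 60 min lysis; IC50 from non-linear regression.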

GCGR [1] = biological target: T2, GCGR (Homo sapiens, UniProt P47871); assay: I125-glucagon binding assay (competition, GCGR membrane fractions); design: expressed in transfected cells; host or cells: CHO-K1; settings: competition with I125-glucagon 0.0625 nM; membrane fractions from GCGR overexpressed CHO-K1 cells
Method in brief: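 Membranes from CHO-K1 cells overexpressing GCGR (7.5 µg/well) were preincubated 5 min with serially diluted compound in 50 mM Tris pH 7.4, 0.5% BSA. I125-glucagon was then added at 0.0625 nM final and incubated 30 min at 25 °C. After filtration, bound radioactivity was counted and IC50 derived by non-linear regression.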
Target sequence in this assay (P47871 26-477, species assumed): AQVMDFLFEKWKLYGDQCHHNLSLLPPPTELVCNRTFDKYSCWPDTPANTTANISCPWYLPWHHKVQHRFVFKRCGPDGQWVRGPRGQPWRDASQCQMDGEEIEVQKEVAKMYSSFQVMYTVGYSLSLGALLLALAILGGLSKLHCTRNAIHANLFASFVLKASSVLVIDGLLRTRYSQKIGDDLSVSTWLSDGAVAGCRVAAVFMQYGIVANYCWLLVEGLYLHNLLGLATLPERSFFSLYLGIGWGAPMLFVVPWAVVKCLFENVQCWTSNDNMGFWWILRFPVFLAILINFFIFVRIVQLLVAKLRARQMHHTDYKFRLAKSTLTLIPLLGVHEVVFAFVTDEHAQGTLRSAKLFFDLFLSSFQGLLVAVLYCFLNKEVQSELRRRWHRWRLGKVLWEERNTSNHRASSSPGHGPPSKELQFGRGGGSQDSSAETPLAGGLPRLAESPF

GCGR [2] = biological target: T2, GCGR; assay: HTRF cAMP assay in primary human hepatocytes stimulated with recombinant glucagon; assay type: cell-based; design: endogenous in cells; host or cells: primary human hepatocytes
Protocol: Downstream secondary messenger eAMP induced by glucagon was detected by Cisbio cAMP Dynamic 2 kit. Testing compounds were each prepared as a dimethyl sulfoxide (DMSO) solution at the concentration of 10 mM. To evaluate the potency of compounds in inhibiting the cAMP production, glucagon receptor (GCGR) overexpressed CHO-K1 cells or human primary hepatocytes were treated with compounds with a serial dilution. The cells were re-suspended in Hank's Balanced Salt solution (HBSS) contained 0.1% (w/v) bovine serum albumin and 800 nM 3-isobutyl-1-methylxanthine (IBMX) and seeded into low volume, 384 wells white plate. The diluted compounds were then added into the plate for 30 minutes pre-incubation where the final DMSO concentration was 1%. The cells were stimulated with glucagon at the concentration equaled to EC50 (an indicium of the concentration of a drag that gives half-maximal response) for 30 minutes at room temperature. After incubation, lysis buffer contain cAMP antibody and fluorescence acceptor were added into each well for additional 60 minutes incubation.
The HTRF cAMP assay was performed by following the manufacturer guidance. Primary human hepatocytes, pre-incubated with tested compounds at various concentrations, were stimulated with recombinant glucagon and the IC50 values were determined by the non-linear regression based on the amount of cAMP production.
Target sequence in this assay (P47871 26-477): as the sequence (P47871 26-477, species assumed) above

T1 sequence (P47871 26-477, species assumed): as above

| SMILES | IC50 (glucagon receptor (GCGR)) [µM] | IC50 (GCGR [1]) [µM] | IC50 (GCGR [2]) [µM] |
| --- | --- | --- | --- |
| CCC(C)[C@H](Nc1ccc(C(=O)NCCC(=O)O)cc1)c1ccc(-c2nnc(-c3ccccc3)o2)cc1 (stereo partly drawn) [Compound 1-49, 3-(4-(((1S)-2-methyl-1-(4-(5-phenyl-1,3,4-oxadiazol-2-yl)phenyl)butyl)amino)benzamido)propanoic acid] | 2.05 | 0.092 | 0.019 |
| CC(C)[C@H](Nc1ccc(C(=O)NCCC(=O)O)cn1)c1ccc(-c2nc3ccccc3o2)cc1 [Compound 4-30, (S)-3-(6-((1-(4-(benzo[d]oxazol-2-yl)phenyl)-2-methylpropyl)amino)nicotinamido)propanoic acid] | 2.38 | 0.0418 | 0.053 |
| CCC(C)[C@H](Nc1ccc(C(=O)NCCC(=O)O)cc1)c1ccc(-c2noc(-c3ccccc3)n2)cc1 (stereo partly drawn) [Compound 2-19, 3-(4-(((1S)-2-methyl-1-(4-(5-phenyl-1,2,4-oxadiazol-3-yl)phenyl)butyl)amino)benzamido)propanoic acid] | 0.473 | 0.049 | 0.015 |
| CC(C)[C@H](Nc1ccc(C(=O)NCCC(=O)O)cn1)c1ccc(-c2nc3ccccc3s2)cc1 [Compound 4-28, (S)-3-(6-((1-(4-(benzo[d]thiazol-2-yl)phenyl)-2-methylpropyl)amino)nicotinamido)propanoic acid] | 2.69 | 0.0477 | 0.062 |
| CCOC(=O)CCNC(=O)c1ccc(N[C@H](c2ccc(-c3nc4ccccc4s3)cc2)C(C)C)cc1 [Compound 4-25, ethyl (S)-3-(4-((1-(4-(benzo[d]thiazol-2-yl)phenyl)-2-methylpropyl)amino)benzamido)propanoate] | 0.0303 | 0.188 |  |
| COC(=O)CCNC(=O)c1ccc(NC(c2ccc(-c3noc(-c4ccccc4)n3)cc2)C(C)C)cc1 (stereo not drawn) [Compound 2-31, methyl 3-(4-((2-methyl-1-(4-(5-phenyl-1,2,4-oxadiazol-3-yl)phenyl)propyl)amino)benzamido)propanoate] | 0.097 | 0.204 |  |
| CCCCC(Nc1ccc(C(=O)NCCS(=O)(=O)O)cc1)c1ccc(-c2nnc(-c3ccccc3)o2)cc1 (stereo not drawn) [Compound 1-13, 2-(4-((1-(4-(5-phenyl-1,3,4-oxadiazol-2-yl)phenyl)pentyl)amino)benzamido)ethane-1-sulfonic acid] | > 30 | 0.314 |  |

Reference: US10882837B2, “Amide compounds and use thereof” (ALPHALA CO., LTD., priority 2017, dated 2021)
